Test results as given in patent US12202835B2, “Substituted aromatic ring-linked dioxinoquinazolines and dioxinoquinolines as kinase inhibitors” (BEIJING SCITECH-MQ PHARMACEUTICALS LIMITED, priority 2018, dated 2025).
Read-outs that look alike come from different tables or passages of the source.

Columns and labels:
Ba/F3 LMNA-NTRK1 cells = test: Assay for inhibiting the proliferation of Ba/F3 LMNA-NTRK1 cells (CCK-8); type: cell-based
Summary of the method: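 Viability was read as absorbance at 450 nm following 1–2 h CCK-8 incubation at 37 °C, relative to control and blank wells.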

TRKA kinase = TRKA kinase (Homo sapiens (Human), UniProt P04629); test: Assay of small molecular compounds for inhibiting the activity of TRKA kinase (LANCE TR-FRET); type: biochemical
Chain of TRKA kinase (P04629 33-796): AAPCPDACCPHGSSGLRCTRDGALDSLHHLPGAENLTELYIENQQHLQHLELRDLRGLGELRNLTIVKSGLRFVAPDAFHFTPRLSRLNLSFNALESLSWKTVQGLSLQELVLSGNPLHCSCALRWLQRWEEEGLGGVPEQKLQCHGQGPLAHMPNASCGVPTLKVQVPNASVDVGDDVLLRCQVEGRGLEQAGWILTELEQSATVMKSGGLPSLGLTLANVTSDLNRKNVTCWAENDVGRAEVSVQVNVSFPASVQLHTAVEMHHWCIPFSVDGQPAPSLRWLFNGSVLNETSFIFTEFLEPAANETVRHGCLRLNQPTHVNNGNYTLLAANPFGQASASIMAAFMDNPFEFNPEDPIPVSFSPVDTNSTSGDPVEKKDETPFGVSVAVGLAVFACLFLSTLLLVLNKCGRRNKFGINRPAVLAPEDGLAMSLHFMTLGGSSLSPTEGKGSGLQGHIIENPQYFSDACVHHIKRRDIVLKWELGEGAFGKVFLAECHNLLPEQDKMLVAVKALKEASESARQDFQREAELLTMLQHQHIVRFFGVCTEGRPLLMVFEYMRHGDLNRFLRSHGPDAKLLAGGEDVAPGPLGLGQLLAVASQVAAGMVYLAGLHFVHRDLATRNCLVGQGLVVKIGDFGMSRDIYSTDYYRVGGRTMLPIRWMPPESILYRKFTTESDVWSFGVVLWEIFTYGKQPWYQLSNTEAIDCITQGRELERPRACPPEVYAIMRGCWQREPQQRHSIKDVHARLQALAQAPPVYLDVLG
Summary of the method: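 TRKA (supplied as 2 nM 2× solution) was pre-reacted with compounds for 5 min at room temperature before a 4× ULight-TK peptide/ATP mix (400 nM/40 μM) started the 60-min dark reaction at 1% DMSO. After stop and 60-min detection, TR-FRET was read.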

VEGFR-2 kinase = VEGFR-2 kinase (Homo sapiens (Human), UniProt P35968); test: Assay of small molecular compounds for inhibiting the activity of VEGFR-2 kinase (LANCE TR-FRET); type: biochemical; settings: read-out: VEGFR2 IC50
Chain of VEGFR-2 kinase (P35968 20-1356): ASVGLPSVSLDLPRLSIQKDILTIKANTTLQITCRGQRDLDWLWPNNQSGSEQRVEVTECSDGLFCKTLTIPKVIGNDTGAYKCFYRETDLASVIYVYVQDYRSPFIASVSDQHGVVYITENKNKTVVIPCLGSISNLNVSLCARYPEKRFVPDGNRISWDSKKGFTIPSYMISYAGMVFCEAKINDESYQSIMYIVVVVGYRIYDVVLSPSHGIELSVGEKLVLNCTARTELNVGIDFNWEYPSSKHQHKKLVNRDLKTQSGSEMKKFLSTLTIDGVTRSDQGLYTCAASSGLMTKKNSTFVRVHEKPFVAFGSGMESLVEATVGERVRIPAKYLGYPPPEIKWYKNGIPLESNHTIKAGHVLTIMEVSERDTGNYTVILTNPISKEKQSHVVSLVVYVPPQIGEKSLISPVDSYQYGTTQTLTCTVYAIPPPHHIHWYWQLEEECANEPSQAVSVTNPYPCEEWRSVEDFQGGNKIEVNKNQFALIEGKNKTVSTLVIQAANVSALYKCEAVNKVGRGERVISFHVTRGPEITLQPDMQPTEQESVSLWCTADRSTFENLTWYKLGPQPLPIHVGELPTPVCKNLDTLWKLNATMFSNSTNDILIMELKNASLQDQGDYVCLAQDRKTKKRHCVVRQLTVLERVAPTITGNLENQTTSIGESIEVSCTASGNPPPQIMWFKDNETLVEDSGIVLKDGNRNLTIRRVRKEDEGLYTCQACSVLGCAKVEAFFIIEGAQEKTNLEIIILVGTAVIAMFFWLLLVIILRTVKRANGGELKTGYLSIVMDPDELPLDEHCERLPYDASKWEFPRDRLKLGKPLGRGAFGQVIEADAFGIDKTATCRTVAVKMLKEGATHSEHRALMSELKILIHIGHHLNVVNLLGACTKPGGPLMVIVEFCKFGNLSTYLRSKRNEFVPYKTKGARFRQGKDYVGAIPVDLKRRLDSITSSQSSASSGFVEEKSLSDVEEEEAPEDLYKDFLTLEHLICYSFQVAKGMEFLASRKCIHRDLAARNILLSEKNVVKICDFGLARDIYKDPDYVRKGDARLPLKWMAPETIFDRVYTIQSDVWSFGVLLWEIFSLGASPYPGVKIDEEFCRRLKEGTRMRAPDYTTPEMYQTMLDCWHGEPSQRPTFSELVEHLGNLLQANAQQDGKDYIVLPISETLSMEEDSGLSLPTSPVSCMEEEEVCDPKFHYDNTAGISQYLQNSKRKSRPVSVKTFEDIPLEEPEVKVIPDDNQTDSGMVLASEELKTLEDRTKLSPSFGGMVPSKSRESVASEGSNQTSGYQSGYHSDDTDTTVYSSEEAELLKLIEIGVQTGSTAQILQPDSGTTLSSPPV
Summary of the method: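 LANCE TR-FRET with human VEGFR-2 (2× stock 0.5 nM) preincubated 30 min with compound (final 2500 to 0.042 nM, 11-point 3-fold), then ULight-JAK-1 (Tyr1023) peptide/ATP added (4× stocks 200 nM/40 μM). Reaction 60 min room temperature, 4% DMSO; IC50 from inhibition-rate curve.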

Ba/F3-AXL cells = test: Assay for inhibiting the proliferation of Ba/F3-AXL cells (CCK-8); type: cell-based; settings: 72 hours of incubation, medium with 100 ng/mL hGas6, CCK-8
Method: The values were then imported into Graphpad Prism 5 software for curve fitting, and IC50 was calculated.

Structure (SMILES)	IC50 (Ba/F3 LMNA-NTRK1 cells; Mus musculus, BaF3) [µM]	IC50 (TRKA kinase) [µM]	IC50 (VEGFR-2 kinase) [µM]	IC50 (Ba/F3-AXL cells) [µM]	IC50 (Ba/F3 LMNA-NTRK1 cells) [µM]
COc1cc2nccc(Oc3ccc(NC(=O)c4cn(C)c(=O)n(-c5ccc(F)cc5)c4=O)cc3F)c2c2c1OCCO2 [Example 13, N-(3-fluoro-4-((5-methoxy-2,3-dihydro-[1,4]dioxino[2,3-f]quinolin-10-yl)oxy)phenyl)-3-(4-fluorophenyl)-1-methyl-2,4-dioxo-1,2,3,4-tetrahydropyrimidine-5-carboxamide]	< 0.05	< 0.05	0.5 to 5	< 0.05	
Cn1cc(C(=O)Nc2ccc(Oc3ccnc4cc(OCCCN5CCOCC5)c5c(c34)OCCO5)c(F)c2)c(=O)n(-c2ccc(F)cc2)c1=O [Example 15, N-(3-fluoro-4-((5-(3-morpholinopropoxy)-2,3-dihydro-[1,4]dioxino[2,3-f]quinolin-10-yl)oxy)phenyl)-3-(4-fluorophenyl)-1-methyl-2,4-dioxo-1,2,3,4-tetrahydropyrimidine-5-carboxamide]	< 0.05	< 0.05	0.05 to 0.5	< 0.05	
CC(C)n1cc(C(=O)Nc2ccc(Oc3ccnc4cc(OCCCN5CCOCC5)c5c(c34)OCCO5)c(F)c2)c(=O)n(-c2ccc(F)cc2)c1=O [Example 16, N-(3-fluoro-4-((5-(3-morpholinopropoxy)-2,3-dihydro-[1,4]dioxino[2,3-f]quinolin-10-yl)oxy)phenyl)-3-(4-fluorophenyl)-1-isopropyl-2,4-dioxo-1,2,3,4-tetrahydropyrimidine-5-carboxamide]	< 0.05	< 0.05		< 0.05	
COc1cc2nccc(Oc3ccc(NC(=O)c4cccn(-c5ccc(F)cc5)c4=O)cc3F)c2c2c1OCCO2 [Example 17, N-(3-fluoro-4-((5-methoxy-2,3-dihydro-[1,4]dioxino[2,3-f]quinolin-10-yl)oxy)phenyl)-1-(4-fluorophenyl)-2-oxo-1,2-dihydropyridine-3-carboxamide]	< 0.05	< 0.05	≤ 0.05	< 0.05	
COc1cc2nccc(Oc3ccc(NC(=O)c4c(OC)ccn(-c5ccc(F)cc5)c4=O)cc3F)c2c2c1OCCO2 [Example 18, N-(3-fluoro-4-((5-methoxy-2,3-dihydro-[1,4]dioxino[2,3-f]quinolin-10-yl)oxy)phenyl)-1-(4-fluorophenyl)-4-methoxy-2-oxo-1,2-dihydropyridine-3-carboxamide]	< 0.05	< 0.05	≤ 0.05	< 0.05	
CCOc1ccn(-c2ccc(F)cc2)c(=O)c1C(=O)Nc1ccc(Oc2ccnc3cc(OC)c4c(c23)OCCO4)c(F)c1 [Example 19, N-(3-fluoro-4-((5-methoxy-2,3-dihydro-[1,4]dioxino[2,3-f]quinolin-10-yl)oxy)phenyl)-1-(4-fluorophenyl)-4-ethoxy-2-oxo-1,2-dihydropyridine-3-carboxamide]	< 0.05	< 0.05	≤ 0.05	< 0.05	
COc1ccn(-c2ccc(F)cc2)c(=O)c1C(=O)Nc1ccc(Oc2ccnc3cc(OCCCN4CCOCC4)c4c(c23)OCCO4)c(F)c1 [Example 21, N-(3-fluoro-4-((5-(3-morpholinopropoxy)-2,3-dihydro-[1,4]dioxino[2,3-f]quinolin-10-yl)oxy)phenyl)-1-(4-fluorophenyl)-4-methoxy-2-oxo-1,2-dihydropyridine-3-carboxamide]	< 0.05	< 0.05	≤ 0.05	< 0.05	
CCOc1ccn(-c2ccc(F)cc2)c(=O)c1C(=O)Nc1ccc(Oc2ccnc3cc(OCCCN4CCOCC4)c4c(c23)OCCO4)c(F)c1 [Example 22, N-(3-fluoro-4-((5-(3-morpholinopropoxy)-2,3-dihydro-[1,4]dioxino[2,3-f]quinolin-10-yl)oxy)phenyl)-1-(4-fluorophenyl)-4-ethoxy-2-oxo-1,2-dihydropyridine-3-carboxamide]	< 0.05	< 0.05	≤ 0.05	< 0.05	
COc1cn(-c2ccc(F)cc2C)nc1C(=O)Nc1ccc(Oc2ccnc3cc(OCCCN4CCOCC4)c4c(c23)OCCO4)c(F)c1 [Example 27, 1-(4-fluoro-2-methylphenyl)-N-(3-fluoro-4-((5-(3-morpholinopropoxy)-2,3-dihydro-[1,4]dioxino[2,3-f]quinolin-10-yl)oxy)phenyl)-4-methoxy-1H-pyrazole-3-carboxamide]	< 0.05	< 0.05	≤ 0.05	< 0.05	
O=C(Nc1ccc(Oc2ccnc3cc(OCCCN4CCCCC4)c4c(c23)OCCO4)c(F)c1)c1cccn(-c2ccc(F)cc2)c1=O [Example 31, N-(3-fluoro-4-((5-(3-(piperidin-1-yl)propoxy)-2,3-dihydro-[1,4]dioxino[2,3-f]quinolin-10-yl)oxy)phenyl)-1-(4-fluorophenyl)-2-oxo-1,2-dihydropyridine-3-carboxamide]		< 0.05	≤ 0.05	< 0.05	< 0.05
COc1ccn(-c2ccc(F)cc2)c(=O)c1C(=O)Nc1ccc(Oc2ccnc3cc(OCCCN4CCCCC4)c4c(c23)OCCO4)c(F)c1 [Example 32, N-(3-fluoro-4-((5-(3-(piperidin-1-yl)propoxy)-2,3-dihydro-[1,4]dioxino[2,3-f]quinolin-10-yl)oxy)phenyl)-1-(4-fluorophenyl)-4-methoxy-2-oxo-1,2-dihydropyridine-3-carboxamide]	< 0.05	< 0.05	≤ 0.05	< 0.05	
CCOc1ccn(-c2ccc(F)cc2)c(=O)c1C(=O)Nc1ccc(Oc2ccnc3cc(OCCCN4CCCCC4)c4c(c23)OCCO4)c(F)c1 [Example 33, N-(3-fluoro-4-((5-(3-(piperidin-1-yl)propoxy)-2,3-dihydro-[1,4]dioxino[2,3-f]quinolin-10-yl)oxy)phenyl)-1-(4-fluorophenyl)-4-ethoxy-2-oxo-1,2-dihydropyridine-3-carboxamide]	< 0.05	< 0.05	≤ 0.05	< 0.05	
COCCOc1cc2nccc(Oc3ccc(NC(=O)c4cccn(-c5ccc(F)cc5)c4=O)cc3F)c2c2c1OCCO2 [Example 34, N-(3-fluoro-4-((5-(2-methoxyethoxy)-2,3-dihydro-[1,4]dioxino[2,3-f]quinolin-10-yl)oxy)phenyl)-1-(4-fluorophenyl)-2-oxo-1,2-dihydropyridine-3-carboxamide]	< 0.05	< 0.05	≤ 0.05	< 0.05	
COCCOc1cc2nccc(Oc3ccc(NC(=O)c4c(OC)ccn(-c5ccc(F)cc5)c4=O)cc3F)c2c2c1OCCO2 [Example 35, N-(3-fluoro-4-((5-(2-methoxyethoxy)-2,3-dihydro-[1,4]dioxino[2,3-f]quinolin-10-yl)oxy)phenyl)-1-(4-fluorophenyl)-4-methoxy-2-oxo-1,2-dihydropyridine-3-carboxamide]	< 0.05	< 0.05	≤ 0.05	< 0.05	
CCOc1ccn(-c2ccc(F)cc2)c(=O)c1C(=O)Nc1ccc(Oc2ccnc3cc(OCCOC)c4c(c23)OCCO4)c(F)c1 [Example 36, N-(3-fluoro-4-((5-(2-methoxyethoxy)-2,3-dihydro-[1,4]dioxino[2,3-f]quinolin-10-yl)oxy)phenyl)-1-(4-fluorophenyl)-4-ethoxy-2-oxo-1,2-dihydropyridine-3-carboxamide]	< 0.05	< 0.05	≤ 0.05	< 0.05	
CCn1cc(C(=O)Nc2ccc(Oc3ccnc4cc(OC)c5c(c34)OCCO5)c(F)c2)c(=O)n(-c2ccc(F)cc2)c1=O [Example 37, N-(3-fluoro-4-((5-methoxy-2,3-dihydro-[1,4]dioxino[2,3-f]quinolin-10-yl)oxy)phenyl)-3-(4-fluorophenyl)-1-ethyl-2,4-dioxo-1,2,3,4-tetrahydropyrimidine-5-carboxamide]	< 0.05	< 0.05	0.05 to 0.5	< 0.05	
CCOc1ccn(Cc2ccccc2)c(=O)c1C(=O)Nc1ccc(Oc2ccnc3cc(OC)c4c(c23)OCCO4)c(F)c1 [Example 117, N-(3-fluoro-4-((5-methoxy-2,3-dihydro-[1,4]dioxino[2,3-f]quinolin-10-yl)oxy)phenyl)-2-oxo-4-ethoxy-1-benzyl-1,2-dihydropyridin-3-carboxamide]		0.05 to 0.5	0.5 to 5	< 0.05	
Cn1cc(C(=O)Nc2ccc(Oc3ccnc4cc(OCC(C)(C)O)c5c(c34)OCCO5)c(F)c2)c(=O)n(-c2ccc(F)cc2)c1=O [Example 121, N-(3-fluoro-4-((5-(2-hydroxy-2-methylpropoxy)-2,3-dihydro-[1,4]dioxino[2,3-f]quinolin-10-yl)oxy)phenyl)-3-(4-fluorophenyl)-1-methyl-2,4-dioxo-1,2,3,4-tetrahydropyrimidine-5-carboxamide]		0.05 to 0.5	0.5 to 5	< 0.05	
Cn1cc(C(=O)Nc2ccc(Oc3ccnc4cc(OCC(C)(C)O)c5c(c34)OCCO5)cc2Cl)c(=O)n(-c2ccc(F)cc2)c1=O [Example 141, N-(2-chloro-4-((5-(2-hydroxy-2-methylpropoxy)-2,3-dihydro-[1,4]dioxino[2,3-f]quinolin-10-yl)oxy)phenyl)-3-(4-fluorophenyl)-1-methyl-2,4-dioxo-1,2,3,4-tetrahydropyrimidine-5-carboxamide]	< 0.05	< 0.05		< 0.05	
